# From article PMC10756276, “Highly specific σ2R/TMEM97 ligand FEM-1689 alleviates neuropathic pain and inhibits the integrated stress response” (Proceedings of the National Academy of Sciences of the …, 2023)
# “Also recorded” adds a separate entry of the source. Like-named read-outs stand apart in the source and are kept apart here.
# Columns and labels:
# 5HT2A = 5HT2A (Homo sapiens, UniProt P28223); assay: PDSP competitive binding assay; details: 10 µM test article; read-out: Ki: primary assay inhibition of radioligand binding, 5HT2A
# Sequence of 5HT2A (P28223 whole entry): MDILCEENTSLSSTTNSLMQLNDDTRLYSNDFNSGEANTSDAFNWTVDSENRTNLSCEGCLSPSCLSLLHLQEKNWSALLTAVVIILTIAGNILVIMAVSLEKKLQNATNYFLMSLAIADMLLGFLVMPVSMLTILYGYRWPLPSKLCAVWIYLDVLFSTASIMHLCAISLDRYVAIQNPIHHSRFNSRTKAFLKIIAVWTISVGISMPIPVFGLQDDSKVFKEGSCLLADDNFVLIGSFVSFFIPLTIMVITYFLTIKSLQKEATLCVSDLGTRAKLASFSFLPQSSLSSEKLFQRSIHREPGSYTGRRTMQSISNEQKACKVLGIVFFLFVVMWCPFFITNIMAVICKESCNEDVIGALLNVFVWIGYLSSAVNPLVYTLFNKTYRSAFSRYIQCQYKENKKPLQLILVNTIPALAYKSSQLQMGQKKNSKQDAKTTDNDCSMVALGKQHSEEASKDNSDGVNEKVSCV
# Alpha1a = target: T1, Alpha1a (Homo sapiens, UniProt P35348); assay: PDSP competitive binding assay
# T1 sequence (P35348 1-466): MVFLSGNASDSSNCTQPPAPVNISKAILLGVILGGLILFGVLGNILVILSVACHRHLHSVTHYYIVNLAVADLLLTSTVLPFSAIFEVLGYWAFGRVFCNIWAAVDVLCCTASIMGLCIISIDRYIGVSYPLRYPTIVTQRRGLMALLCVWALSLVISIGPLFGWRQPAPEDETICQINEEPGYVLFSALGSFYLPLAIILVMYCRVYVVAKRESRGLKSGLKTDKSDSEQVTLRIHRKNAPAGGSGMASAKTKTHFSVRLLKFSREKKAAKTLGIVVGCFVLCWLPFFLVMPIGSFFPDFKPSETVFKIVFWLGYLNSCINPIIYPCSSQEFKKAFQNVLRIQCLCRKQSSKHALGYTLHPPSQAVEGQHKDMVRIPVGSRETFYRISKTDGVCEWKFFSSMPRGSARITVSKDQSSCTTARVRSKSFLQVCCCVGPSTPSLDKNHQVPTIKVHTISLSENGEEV
# SERT = target: T2, SERT (Homo sapiens, UniProt P31645); assay: PDSP competitive binding assay; details: 10 µM test article; read-out: Ki: primary assay inhibition of radioligand binding, SERT
# T2 construct: purchased NIMH Psychoactive Drug Screening Program (PDSP), University of North Carolina at Chapel Hill
# T2 sequence (P31645 whole entry): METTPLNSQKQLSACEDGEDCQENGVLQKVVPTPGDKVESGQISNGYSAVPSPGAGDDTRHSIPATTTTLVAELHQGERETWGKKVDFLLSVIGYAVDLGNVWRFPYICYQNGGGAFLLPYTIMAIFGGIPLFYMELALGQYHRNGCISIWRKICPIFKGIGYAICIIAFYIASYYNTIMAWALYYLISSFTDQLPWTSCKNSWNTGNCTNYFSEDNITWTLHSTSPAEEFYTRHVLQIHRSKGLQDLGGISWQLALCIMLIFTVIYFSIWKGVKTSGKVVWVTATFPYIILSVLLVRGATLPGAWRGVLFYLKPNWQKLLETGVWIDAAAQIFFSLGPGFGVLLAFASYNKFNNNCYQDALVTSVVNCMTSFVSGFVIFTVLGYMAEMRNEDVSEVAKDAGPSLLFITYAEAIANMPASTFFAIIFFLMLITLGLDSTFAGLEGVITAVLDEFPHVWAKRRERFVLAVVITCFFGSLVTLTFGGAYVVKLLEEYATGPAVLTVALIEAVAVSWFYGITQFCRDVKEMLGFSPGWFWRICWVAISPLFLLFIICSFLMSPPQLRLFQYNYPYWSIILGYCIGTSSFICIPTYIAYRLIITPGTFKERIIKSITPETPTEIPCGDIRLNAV
# Beta2 = Beta2 (Homo sapiens, UniProt P07550); assay: PDSP competitive binding assay; details: 10 µM test article; read-out: Ki: primary assay inhibition of radioligand binding, Beta2
# Sequence of Beta2 (P07550 whole entry): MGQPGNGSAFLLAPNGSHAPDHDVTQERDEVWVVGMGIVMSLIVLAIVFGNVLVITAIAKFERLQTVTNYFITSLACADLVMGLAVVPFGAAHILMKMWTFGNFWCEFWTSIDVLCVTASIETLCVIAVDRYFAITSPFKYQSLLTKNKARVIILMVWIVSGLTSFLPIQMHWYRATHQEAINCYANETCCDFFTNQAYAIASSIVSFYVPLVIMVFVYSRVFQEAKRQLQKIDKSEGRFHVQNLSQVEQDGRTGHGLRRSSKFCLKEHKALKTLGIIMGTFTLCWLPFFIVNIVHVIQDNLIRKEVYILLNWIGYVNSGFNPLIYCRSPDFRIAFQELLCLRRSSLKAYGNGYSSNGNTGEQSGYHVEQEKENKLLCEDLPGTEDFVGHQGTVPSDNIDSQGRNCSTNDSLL
# σ1R = σ1R (Homo sapiens, UniProt Q99720); assay: Competition binding with [3H]-(+)-pentazocine (NIMH PDSP)
# Sequence of σ1R (Q99720 whole entry): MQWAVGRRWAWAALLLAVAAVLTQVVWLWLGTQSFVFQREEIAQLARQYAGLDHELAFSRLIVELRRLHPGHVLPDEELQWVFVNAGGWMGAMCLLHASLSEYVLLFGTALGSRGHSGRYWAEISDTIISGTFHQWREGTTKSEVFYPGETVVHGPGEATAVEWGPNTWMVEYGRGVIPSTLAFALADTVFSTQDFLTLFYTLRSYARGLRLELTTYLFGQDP
# 5HT6 = 5HT6 (Homo sapiens, UniProt P50406); assay: PDSP competitive binding assay; details: single determination
# Sequence of 5HT6 (P50406 whole entry, species assumed): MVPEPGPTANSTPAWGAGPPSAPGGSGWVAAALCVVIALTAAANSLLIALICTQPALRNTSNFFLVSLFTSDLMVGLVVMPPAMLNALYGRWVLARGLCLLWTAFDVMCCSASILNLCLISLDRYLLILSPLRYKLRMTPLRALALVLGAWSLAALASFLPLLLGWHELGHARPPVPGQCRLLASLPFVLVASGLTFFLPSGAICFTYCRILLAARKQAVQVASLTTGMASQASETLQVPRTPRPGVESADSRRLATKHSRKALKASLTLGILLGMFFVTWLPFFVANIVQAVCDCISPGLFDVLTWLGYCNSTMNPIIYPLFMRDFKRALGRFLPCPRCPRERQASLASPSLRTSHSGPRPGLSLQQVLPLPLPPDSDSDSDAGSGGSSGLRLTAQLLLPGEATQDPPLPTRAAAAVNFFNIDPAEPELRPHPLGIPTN
# D5 = D5 (Homo sapiens, UniProt P21918); assay: PDSP competitive binding assay; details: 10 µM test article; read-out: Ki: primary assay inhibition of radioligand binding, D5
# Sequence of D5 (P21918 whole entry): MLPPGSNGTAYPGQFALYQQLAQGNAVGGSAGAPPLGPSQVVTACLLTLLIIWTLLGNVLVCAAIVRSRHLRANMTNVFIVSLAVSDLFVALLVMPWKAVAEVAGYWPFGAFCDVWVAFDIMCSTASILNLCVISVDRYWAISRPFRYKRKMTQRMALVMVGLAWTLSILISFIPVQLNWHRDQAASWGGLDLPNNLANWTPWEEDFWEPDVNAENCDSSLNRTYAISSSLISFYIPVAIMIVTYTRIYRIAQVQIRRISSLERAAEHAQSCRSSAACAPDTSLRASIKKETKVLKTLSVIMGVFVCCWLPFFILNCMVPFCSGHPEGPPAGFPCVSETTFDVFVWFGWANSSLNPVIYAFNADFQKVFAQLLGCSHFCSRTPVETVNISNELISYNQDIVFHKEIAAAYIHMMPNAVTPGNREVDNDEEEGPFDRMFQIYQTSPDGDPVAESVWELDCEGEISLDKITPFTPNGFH
# [1] = test system: p-ACC in mouse DRG neurons; assay: p-ACC immunocytochemistry in cultured DRG neurons; type: cell-based; details: 16 h; FEM-1689 10, 100, 1,000 nM; A769662 100 µM; wild-type and TMEM97KO neurons
# Method: (§1) The ICC protocol was based on a previously published protocol ([76]). […] Cells were blocked with 10% normal goat serum (NGS) in PBS-triton X (0.1%). […] Antibodies were incubated at 4 °C overnight. […] It was washed with PBS twice. […] Images were analyzed using Olympus CellSens. […] Number of cells analyzed are detailed in SI Appendix, Tables S3 and S4. […]
# (§2) T his BSA gradient containing the cells was centrifuged at 900g for 5 min at room temperatur e.
# (§3) The pellet containing the cells was resuspended in Br ainPhys media (STEMCell #05790) containing 2% […]
# (§4) 1% Gluta Max (Gibco # 350 5 0061). Hu man DRG ne uron s were plated a nd grown o n glass coverslips coate d with po ly-D-lysine (Sigma #P7405). C ultured D RG neurons were plated for 24 hours before being treated.
# (§5) Methylglyoxal (Sigma- Aldrich #M0252) and F EM- 1689 were serially diluted in media.
# (§6) Mouse samples - DRG cultures […]
# (§7) anesthesia and decapitated. […]
# (§8) section above with minor differences.
# (§9) Mouse DRG neurons were grown in
# (§10) SAS-0132 and DKR-1677 were […]
# (§11) dissolved in 100% DMSO to a final concentr ation of 200mM and stored at - 20 °C. and DKR-1677 were serially diluted in media. Untreated media was completely replaced with media containing each compound. […]
# (§12) Slides were […]
# incubated with 1:2 diluted hydrogen peroxide in distilled water for 10 min at r oom temper ature and washed twice in distilled water. […]
# 5HT5a = target: T3, 5HT5a (Homo sapiens, UniProt P47898); assay: PDSP competitive binding assay; details: 10 µM test article; read-out: Ki: primary assay inhibition of radioligand binding, 5HT5a
# T3 construct: purchased NIMH Psychoactive Drug Screening Program (PDSP), University of North Carolina at Chapel Hill
# T3 sequence (P47898 whole entry): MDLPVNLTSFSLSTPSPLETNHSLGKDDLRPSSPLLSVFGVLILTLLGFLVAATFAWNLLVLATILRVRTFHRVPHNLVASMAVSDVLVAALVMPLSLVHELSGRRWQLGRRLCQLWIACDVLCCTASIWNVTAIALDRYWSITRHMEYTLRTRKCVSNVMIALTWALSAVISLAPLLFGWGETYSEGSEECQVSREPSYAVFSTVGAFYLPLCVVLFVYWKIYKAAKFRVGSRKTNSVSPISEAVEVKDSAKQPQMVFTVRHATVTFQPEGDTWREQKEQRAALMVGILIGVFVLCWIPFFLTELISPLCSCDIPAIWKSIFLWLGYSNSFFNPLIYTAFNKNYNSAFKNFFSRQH
# [2] = test system: p-eIF2α in mouse DRG neurons; assay: p-eIF2α immunocytochemistry in cultured DRG neurons; type: cell-based; details: for p-eIF2α levels: ISRIB 200 nM
# Method: as §1, §2, §3, §4, §5, §6, §7, §8, §9, §10, §11, §12
# incubated with 1:2 diluted hydrogen peroxide in distilled water for 10 min at r oom temper ature and washed twice in distilled water. The protease IV was applied to each section and incubated for 5 min at room temperature. Slides were w ashed twice in 1X PBS and RNA scope was performed immediately. A mixture of probes - Tmem97, Scn10a, and Fabp7 – was hybridized for 2 hours at 40 °C in a humidity control tray
structure (smiles),measurement,setting,value
OCCCN1CC[C@@H]2C[C@H]1c1cc(-c3ccc(C(F)(F)F)cc3)ccc12 [FEM-1689],inhibition at 10 µM,5HT2A,< 50%
same,"LogKi, Alpha1A","Alpha1a; dose response curve, given as LogKi with negative sign",-5.70
same,Ki,"Alpha1a; read-out: Alpha1a Ki, single determination",1990 nM
same,Ki,"Alpha1a; read-out: Ki, Alpha1A, dose response curve",1990 nM
same,inhibition at 10 µM,SERT,< 50%
same,inhibition at 10 µM,Beta2,< 50%
same,Ki,σ1R,206 nM
same,selectivity for σ2R/TMEM97 vs σ1R,σ1R; ratio of Ki,10 fold
same,Ki,"σ1R; read-out: σ1R Ki, averages ± SD",167 ± 54 nM
same,Ki,5HT6,> 10000 nM
same,inhibition at 10 µM,D5,< 50%
same,p-ACC levels,[1],remained unchanged; also recorded: no change in p-ACC levels
same,inhibition at 10 µM,5HT5a,< 50%
same,treatment time of maximal effect on p-eIF2α,"[2]; 100 nM, wild-type mouse DRG neurons",16 h
same,half-life (t1/2) at reducing p-eIF2α levels in vitro,"[2]; 100 nM, wild-type mouse DRG neurons, 0.5-16 h",5.0 h
same,IC50,"[2]; DRG neuron, wild-type mouse DRG neurons, 16 h",30 nM
same,p-eIF2α levels,"[2]; TMEM97KO mouse DRG neurons, 16 h",did not respond
same,p-eIF2α levels,"[2]; wild-type mouse DRG neurons, 16 h",reduced p-eIF2α levels
same,concentration of maximal ISR inhibition (p-eIF2α),"[2]; wild-type mouse DRG neurons, 16 h, comparable to ISRIB 200 nM",100 nM
